Our source for the IC50 values is ChEMBL document CHEMBL4052762, “Synthesis and biological evaluation of pyrrole-based chalcones as CYP1 enzyme inhibitors, for possible prevention of cancer and overcoming cisplatin resistance” (Bioorg Med Chem Lett, 2017).

SMILES strings stand for the structures.

Broadly, the IC50 is the midpoint of a concentration-inhibition curve. A higher IC50 goes with a need for much substance.

The target of one test is Cytochrome P450 3A4 (Homo sapiens, UniProt P08684). The experiment in a line: Inhibition of human CYP3A4 bound to yeast microsomal membrane using dibenzylfluorescein as substrate after 10 mins by fluorescence assay. Format: ADME.
For the next test, the target named is T1, Cytochrome P450 1A2 (Homo sapiens, UniProt P05177).
T1 sequence (P05177 whole entry): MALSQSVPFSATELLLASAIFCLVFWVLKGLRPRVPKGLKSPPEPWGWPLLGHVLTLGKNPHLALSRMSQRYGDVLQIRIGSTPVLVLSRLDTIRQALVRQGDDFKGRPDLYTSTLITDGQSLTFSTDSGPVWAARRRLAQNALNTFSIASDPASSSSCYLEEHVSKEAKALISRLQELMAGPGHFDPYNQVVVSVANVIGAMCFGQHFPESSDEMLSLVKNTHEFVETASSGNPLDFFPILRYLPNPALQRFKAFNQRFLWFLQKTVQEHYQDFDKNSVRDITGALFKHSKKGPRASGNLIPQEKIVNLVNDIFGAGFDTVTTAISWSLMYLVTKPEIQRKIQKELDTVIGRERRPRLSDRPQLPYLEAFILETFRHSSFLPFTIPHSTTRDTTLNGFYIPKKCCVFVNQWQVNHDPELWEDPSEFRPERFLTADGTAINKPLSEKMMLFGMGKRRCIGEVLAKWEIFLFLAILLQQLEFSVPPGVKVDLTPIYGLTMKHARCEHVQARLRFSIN
The experiment in a line: Inhibition of human CYP1A2 bound to yeast microsomal membrane using 3-cyano-7-ethoxycoumarin as substrate after 10 mins by fluorescence assay.

A further test addresses Cytochrome P450 2D6 (Homo sapiens, UniProt P10635). The test can be described thus: Inhibition of human CYP2D6 bound to yeast microsomal membrane using 7-ethoxy-methyloxy-3-cyanocoumarin as substrate after 10 mins by fluorescence assay. Format: ADME.
In another test the target is T2, Cytochrome P450 1B1 (Homo sapiens, UniProt Q16678).
T2 sequence (Q16678 whole entry): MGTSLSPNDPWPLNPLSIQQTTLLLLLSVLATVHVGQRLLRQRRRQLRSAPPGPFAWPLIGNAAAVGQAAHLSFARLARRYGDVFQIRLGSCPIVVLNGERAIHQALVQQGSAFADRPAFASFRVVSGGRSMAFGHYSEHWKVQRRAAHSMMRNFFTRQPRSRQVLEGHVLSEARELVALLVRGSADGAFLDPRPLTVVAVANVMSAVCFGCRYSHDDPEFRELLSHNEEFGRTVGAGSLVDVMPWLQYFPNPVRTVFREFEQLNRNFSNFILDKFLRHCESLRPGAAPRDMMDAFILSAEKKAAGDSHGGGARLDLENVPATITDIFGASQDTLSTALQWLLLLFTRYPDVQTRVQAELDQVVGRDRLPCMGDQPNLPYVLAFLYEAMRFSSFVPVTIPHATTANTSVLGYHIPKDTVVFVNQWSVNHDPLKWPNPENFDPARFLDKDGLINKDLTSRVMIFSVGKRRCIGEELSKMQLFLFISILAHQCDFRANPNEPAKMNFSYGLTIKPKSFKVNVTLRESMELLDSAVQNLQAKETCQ
The experiment in a line: Inhibition of human CYP1B1 bound to yeast microsomal membrane using 7-ethoxyresorufin as substrate after 10 mins by fluorescence assay.

The target of another test is Cytochrome P450 2C19 (Homo sapiens, UniProt P33261). The experiment in a line: Inhibition of human CYP2C19 bound to yeast microsomal membrane using 3-cyano-7-ethoxycoumarin as substrate after 10 mins by fluorescence assay. Format: ADME.
In the next test the target is T3, Cytochrome P450 1A1 (Homo sapiens, UniProt P04798).
T3 sequence (P04798 whole entry): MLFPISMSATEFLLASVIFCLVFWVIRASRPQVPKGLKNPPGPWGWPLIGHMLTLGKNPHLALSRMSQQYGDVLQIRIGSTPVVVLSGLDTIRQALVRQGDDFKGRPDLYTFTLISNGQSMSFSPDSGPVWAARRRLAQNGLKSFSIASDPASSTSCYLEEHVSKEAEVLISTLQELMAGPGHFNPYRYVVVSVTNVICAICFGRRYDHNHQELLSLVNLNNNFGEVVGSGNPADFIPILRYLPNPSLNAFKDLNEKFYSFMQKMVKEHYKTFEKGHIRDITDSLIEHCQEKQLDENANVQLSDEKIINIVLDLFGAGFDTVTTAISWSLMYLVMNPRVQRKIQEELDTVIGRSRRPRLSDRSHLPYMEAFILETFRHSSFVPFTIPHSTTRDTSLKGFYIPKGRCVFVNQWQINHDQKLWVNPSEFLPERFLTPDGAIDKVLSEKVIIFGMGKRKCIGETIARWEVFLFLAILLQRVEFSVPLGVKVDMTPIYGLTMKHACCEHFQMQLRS
The experiment in a line: Inhibition of human CYP1A1 bound to yeast microsomal membrane using 7-ethoxyresorufin as substrate after 10 mins by fluorescence assay.

The target of another test is Cytochrome P450 2C9 (Homo sapiens, UniProt P11712). The experiment in a line: Inhibition of human CYP2C9 bound to yeast microsomal membrane using 3-cyano-7-ethoxycoumarin as substrate after 10 mins by fluorescence assay. Format: ADME.
Chain of Cytochrome P450 2C9 (P11712 whole entry): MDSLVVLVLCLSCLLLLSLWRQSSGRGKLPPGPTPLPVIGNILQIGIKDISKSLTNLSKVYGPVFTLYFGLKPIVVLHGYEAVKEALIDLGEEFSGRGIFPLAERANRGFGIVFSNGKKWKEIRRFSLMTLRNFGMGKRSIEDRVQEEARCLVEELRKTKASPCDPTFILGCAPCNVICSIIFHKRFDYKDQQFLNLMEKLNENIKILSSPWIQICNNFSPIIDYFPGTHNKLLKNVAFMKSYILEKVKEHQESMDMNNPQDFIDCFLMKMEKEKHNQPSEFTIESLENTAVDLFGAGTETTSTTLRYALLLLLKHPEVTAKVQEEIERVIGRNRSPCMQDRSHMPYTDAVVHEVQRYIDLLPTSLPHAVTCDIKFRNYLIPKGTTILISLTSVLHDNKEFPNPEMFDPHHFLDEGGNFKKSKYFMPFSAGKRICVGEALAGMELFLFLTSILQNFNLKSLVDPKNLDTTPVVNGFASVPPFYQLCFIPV

Chain of Cytochrome P450 3A4 (P08684 whole entry): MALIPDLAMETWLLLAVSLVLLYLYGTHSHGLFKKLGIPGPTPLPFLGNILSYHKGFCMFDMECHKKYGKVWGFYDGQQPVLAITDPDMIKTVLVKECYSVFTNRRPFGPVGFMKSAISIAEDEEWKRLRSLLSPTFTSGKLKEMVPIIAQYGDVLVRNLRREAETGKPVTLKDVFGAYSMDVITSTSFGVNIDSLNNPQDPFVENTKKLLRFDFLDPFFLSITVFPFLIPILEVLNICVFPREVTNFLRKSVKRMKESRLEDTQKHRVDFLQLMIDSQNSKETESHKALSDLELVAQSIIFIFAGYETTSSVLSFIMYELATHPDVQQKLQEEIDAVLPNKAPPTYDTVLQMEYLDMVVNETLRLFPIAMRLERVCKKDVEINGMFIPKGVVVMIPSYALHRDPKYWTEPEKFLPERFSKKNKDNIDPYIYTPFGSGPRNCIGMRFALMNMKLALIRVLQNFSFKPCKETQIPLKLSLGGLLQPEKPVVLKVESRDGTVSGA
Chain of Cytochrome P450 2D6 (P10635 whole entry): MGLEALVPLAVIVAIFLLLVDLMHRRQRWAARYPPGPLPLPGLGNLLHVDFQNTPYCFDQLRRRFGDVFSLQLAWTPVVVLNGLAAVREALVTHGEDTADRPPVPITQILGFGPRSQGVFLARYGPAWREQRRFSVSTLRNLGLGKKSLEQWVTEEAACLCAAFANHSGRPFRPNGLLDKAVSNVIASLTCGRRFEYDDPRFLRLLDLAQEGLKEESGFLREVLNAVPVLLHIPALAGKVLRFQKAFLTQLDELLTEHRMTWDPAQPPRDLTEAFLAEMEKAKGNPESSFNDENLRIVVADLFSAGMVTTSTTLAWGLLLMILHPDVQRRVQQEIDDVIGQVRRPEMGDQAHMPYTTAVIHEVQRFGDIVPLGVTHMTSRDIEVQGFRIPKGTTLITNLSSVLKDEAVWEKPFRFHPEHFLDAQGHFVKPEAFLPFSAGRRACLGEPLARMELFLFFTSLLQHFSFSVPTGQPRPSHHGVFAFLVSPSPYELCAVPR
Chain of Cytochrome P450 2C19 (P33261 whole entry): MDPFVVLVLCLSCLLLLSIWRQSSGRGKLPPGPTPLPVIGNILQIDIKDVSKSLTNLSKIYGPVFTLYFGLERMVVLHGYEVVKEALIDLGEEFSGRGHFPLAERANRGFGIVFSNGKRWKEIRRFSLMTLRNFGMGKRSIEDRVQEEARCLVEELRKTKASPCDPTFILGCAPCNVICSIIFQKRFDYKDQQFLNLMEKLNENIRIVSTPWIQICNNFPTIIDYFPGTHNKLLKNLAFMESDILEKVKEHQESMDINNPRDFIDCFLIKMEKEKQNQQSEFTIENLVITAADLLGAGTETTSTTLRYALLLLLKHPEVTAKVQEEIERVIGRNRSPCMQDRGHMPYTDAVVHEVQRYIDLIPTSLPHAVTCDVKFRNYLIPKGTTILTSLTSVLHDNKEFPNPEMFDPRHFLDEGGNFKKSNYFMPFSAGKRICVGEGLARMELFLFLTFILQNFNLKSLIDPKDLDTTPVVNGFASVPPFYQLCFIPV

For `COc1cccc(/C=C/C(=O)c2ccc[nH]2)c1`, the IC50 against Cytochrome P450 3A4 was > 20 µM; at Cytochrome P450 1A2, 1.5 µM; on Cytochrome P450 2D6 it was 11 µM; against Cytochrome P450 1B1, 5.2 µM; on Cytochrome P450 2C19 it was > 20 µM; against Cytochrome P450 1A1, 6.2 µM. The IC50 on Cytochrome P450 2C9 is > 20 µM.

As for `COc1ccc(/C=C/C=C/C(=O)c2ccc[nH]2)cc1`, the IC50 at Cytochrome P450 3A4 is > 20 µM; against Cytochrome P450 1A2, 13 µM; at Cytochrome P450 2D6, 18 µM; on Cytochrome P450 1B1 it was > 20 µM; against Cytochrome P450 2C19 it was > 20 µM; at Cytochrome P450 1A1, > 20 µM. In addition, the IC50 against Cytochrome P450 2C9 is > 20 µM.

On to `O=C(/C=C/c1cc([N+](=O)[O-])ccc1Cl)c1ccc[nH]1`, for which the half-maximal inhibitory concentration (IC50) is > 20 µM on Cytochrome P450 3A4; 10.9 µM against Cytochrome P450 1A2; 12 µM on Cytochrome P450 2D6; > 20 µM against Cytochrome P450 1B1; > 20 µM against Cytochrome P450 2C19; > 20 µM against Cytochrome P450 1A1. Besides, the IC50 against Cytochrome P450 2C9 is > 20 µM.

In the case of `COc1cccc(/C=C/C(=O)c2ccc[nH]2)c1OC`, the IC50 against Cytochrome P450 3A4 was > 20 µM; at Cytochrome P450 1A2, 9.2 µM; against Cytochrome P450 2D6, 16 µM; against Cytochrome P450 1B1 it was > 20 µM; against Cytochrome P450 2C19, > 20 µM; on Cytochrome P450 1A1, 5.2 µM. Moreover, the IC50 against Cytochrome P450 2C9 is > 20 µM.

Take `O=C(/C=C/c1ccccc1F)c1ccc[nH]1`: the IC50 against Cytochrome P450 3A4 is > 20 µM; against Cytochrome P450 1A2 it was 2.2 µM; against Cytochrome P450 2D6 it was 16 µM; at Cytochrome P450 1B1, 2.7 µM; on Cytochrome P450 2C19, > 20 µM; at Cytochrome P450 1A1 it was > 20 µM. The IC50 at Cytochrome P450 2C9 is > 20 µM.

For `O=C(/C=C/C=C/c1ccccc1)c1ccc[nH]1`, the IC50 on Cytochrome P450 3A4 is > 20 µM; at Cytochrome P450 1A2, 10.5 µM; on Cytochrome P450 2D6, 12 µM; against Cytochrome P450 1B1, > 20 µM; against Cytochrome P450 2C19, > 20 µM; on Cytochrome P450 1A1 it was > 20 µM. Also, the IC50 at Cytochrome P450 2C9 was > 20 µM.

As for `COc1cc(/C=C/C(=O)c2ccc[nH]2)cc(OC)c1OC`, the IC50 against Cytochrome P450 3A4 was > 20 µM; at Cytochrome P450 1A2, 15 µM; on Cytochrome P450 2D6, 14 µM; at Cytochrome P450 1B1 it was > 20 µM; against Cytochrome P450 2C19, > 20 µM; at Cytochrome P450 1A1 it was > 20 µM. For the same molecule, on Cytochrome P450 2C9, the IC50 was > 20 µM.

Take `COc1cc(/C=C/C(=O)c2ccc[nH]2)cc(OC)c1`: the IC50 at Cytochrome P450 3A4 was > 20 µM; against Cytochrome P450 1A2 it was 9 µM; against Cytochrome P450 2D6 it was 15 µM; at Cytochrome P450 1B1, > 20 µM; against Cytochrome P450 2C19, > 20 µM; against Cytochrome P450 1A1, 6.1 µM. In addition, the IC50 against Cytochrome P450 2C9 was > 20 µM.

Regarding `COc1ccc(/C=C/C(=O)c2ccc[nH]2)cc1`, the IC50 on Cytochrome P450 3A4 was > 20 µM; against Cytochrome P450 1A2, 11.8 µM; on Cytochrome P450 2D6 it was 16 µM; against Cytochrome P450 1B1, > 20 µM; against Cytochrome P450 2C19 it was > 20 µM; on Cytochrome P450 1A1 it was > 20 µM. In addition, the IC50 at Cytochrome P450 2C9 was > 20 µM.

For `O=C(/C=C/c1ccc(Br)cc1)c1ccc[nH]1`, the IC50 at Cytochrome P450 3A4 is > 20 µM; against Cytochrome P450 1A2 it was 13.2 µM; against Cytochrome P450 2D6 it was 18 µM; at Cytochrome P450 1B1 it was 8.5 µM; at Cytochrome P450 2C19, > 20 µM; against Cytochrome P450 1A1, > 20 µM. On Cytochrome P450 2C9, the IC50 was > 20 µM.

As to `COc1cccc(OC)c1/C=C/C(=O)c1ccc[nH]1`, the IC50 against Cytochrome P450 3A4 was > 20 µM; at Cytochrome P450 1A2, 10 µM; at Cytochrome P450 2D6, 18 µM; against Cytochrome P450 1B1, > 20 µM; on Cytochrome P450 2C19, > 20 µM; on Cytochrome P450 1A1, 10.8 µM. Also, on Cytochrome P450 2C9, the IC50 is > 20 µM.

As for `O=C(O)c1ccc(/C=C/C(=O)c2ccc[nH]2)cc1`, the IC50 against Cytochrome P450 3A4 is > 20 µM; against Cytochrome P450 1A2, > 20 µM; against Cytochrome P450 2D6, 18 µM; at Cytochrome P450 1B1, > 20 µM; against Cytochrome P450 2C19, > 20 µM; on Cytochrome P450 1A1, > 20 µM. Moreover, on Cytochrome P450 2C9, the IC50 was > 20 µM.

Consider `O=C(/C=C/c1c2ccccc2cc2ccccc12)c1ccc[nH]1`, for which the 50% inhibitory concentration (IC50) was > 20 µM at Cytochrome P450 3A4; > 20 µM at Cytochrome P450 1A2; 12 µM against Cytochrome P450 2D6; > 20 µM at Cytochrome P450 1B1; > 20 µM against Cytochrome P450 2C19; > 20 µM against Cytochrome P450 1A1. For the same molecule, on Cytochrome P450 2C9, the IC50 is > 20 µM.

Regarding `COc1ccc(/C=C/C(=O)c2ccc[nH]2)c(OC)c1`, the IC50 is > 20 µM against Cytochrome P450 3A4; 10 µM against Cytochrome P450 1A2; 11 µM at Cytochrome P450 2D6; > 20 µM on Cytochrome P450 1B1; > 20 µM against Cytochrome P450 2C19; 11.8 µM against Cytochrome P450 1A1. For the same molecule, the IC50 at Cytochrome P450 2C9 is > 20 µM.

Consider `O=C(/C=C/c1cccc(Cl)c1)c1ccc[nH]1`, for which the IC50 was > 20 µM at Cytochrome P450 3A4; 12 µM against Cytochrome P450 1A2; 14 µM against Cytochrome P450 2D6; 1.5 µM on Cytochrome P450 1B1; > 20 µM on Cytochrome P450 2C19; 16 µM against Cytochrome P450 1A1. Moreover, the IC50 against Cytochrome P450 2C9 was > 20 µM.

Regarding `O=C(/C=C/c1ccc2c(c1)OCO2)c1ccc[nH]1`, the IC50 against Cytochrome P450 3A4 was > 20 µM; against Cytochrome P450 1A2, 9.7 µM; on Cytochrome P450 2D6 it was 14 µM; on Cytochrome P450 1B1 it was > 20 µM; on Cytochrome P450 2C19 it was > 20 µM; on Cytochrome P450 1A1, 5.8 µM. Also, the IC50 on Cytochrome P450 2C9 was > 20 µM.

`CCc1ccc(/C=C/C(=O)c2ccc[nH]2)o1`: the IC50 on Cytochrome P450 3A4 was > 20 µM; on Cytochrome P450 1A2, 2.5 µM; at Cytochrome P450 2D6 it was 17 µM; against Cytochrome P450 1B1, 9.2 µM; at Cytochrome P450 2C19, > 20 µM; against Cytochrome P450 1A1, > 20 µM. At Cytochrome P450 2C9, the IC50 is > 20 µM.

Regarding `O=C(/C=C/c1cccc(Br)c1)c1ccc[nH]1`, the half-inhibitory concentration (IC50) is > 20 µM against Cytochrome P450 3A4; > 20 µM against Cytochrome P450 1A2; 14 µM at Cytochrome P450 2D6; 13 µM on Cytochrome P450 1B1; > 20 µM against Cytochrome P450 2C19; > 20 µM on Cytochrome P450 1A1. Also, the IC50 on Cytochrome P450 2C9 was > 20 µM.

In the case of `CN(C)c1ccc(/C=C/C(=O)c2ccc[nH]2)cc1`, the IC50 is > 20 µM at Cytochrome P450 3A4; 12.5 µM against Cytochrome P450 1A2; 13 µM at Cytochrome P450 2D6; > 20 µM at Cytochrome P450 1B1; > 20 µM at Cytochrome P450 2C19; > 20 µM at Cytochrome P450 1A1. On Cytochrome P450 2C9, the IC50 is > 20 µM.

Regarding `COc1ccc(/C=C/C(=O)c2ccc[nH]2)cc1Br`, the IC50 on Cytochrome P450 3A4 is > 20 µM; on Cytochrome P450 1A2 it was 17 µM; on Cytochrome P450 2D6, 13 µM; at Cytochrome P450 1B1, > 20 µM; on Cytochrome P450 2C19, > 20 µM; against Cytochrome P450 1A1 it was > 20 µM. In addition, the IC50 at Cytochrome P450 2C9 was > 20 µM.
